The target in one assay is T1, MDM2 (Homo sapiens, UniProt Q00987).
T1 construct: made in house
Kind of assay: Inhibition test of MDM2-P53 (GST-MDM2, Biotin-P53, Anti-GST-Tb, SA-XL665). Format: binding. In a few lines: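 Compounds, serially diluted 5-fold (twelve concentrations), were shaken for 90 min at 25° C with a mix of GST-MDM2 (4 nM final), Biotin-P53, anti-GST-Tb and SA-XL665. Buffer: 1×PBS, 0.1% BSA, 5 mM DTT, 1 mM AEBSF; signal read on a microplate reader.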

Assay [1] relates to human osteosarcoma cell line SJSA-1. Kind of assay: Inhibition of proliferation of human osteosarcoma cell line SJSA-1 (DAPI staining, In Cell Analyzer). As to conditions: Homo sapiens, SJSA-1, 72 h, read-out: IC50 (nM), inhibitory activity on proliferation of human osteosarcoma cell line SJSA-1, SJSA-1, incubated 72 h.

20 compounds from patent US11339171B2, “MDM2 inhibitors” (Gan & Lee Pharmaceuticals, priority 2017, dated 2022) can be followed below.

pIC50: −log10 of the molar value.

T1 sequence (Q00987 whole entry): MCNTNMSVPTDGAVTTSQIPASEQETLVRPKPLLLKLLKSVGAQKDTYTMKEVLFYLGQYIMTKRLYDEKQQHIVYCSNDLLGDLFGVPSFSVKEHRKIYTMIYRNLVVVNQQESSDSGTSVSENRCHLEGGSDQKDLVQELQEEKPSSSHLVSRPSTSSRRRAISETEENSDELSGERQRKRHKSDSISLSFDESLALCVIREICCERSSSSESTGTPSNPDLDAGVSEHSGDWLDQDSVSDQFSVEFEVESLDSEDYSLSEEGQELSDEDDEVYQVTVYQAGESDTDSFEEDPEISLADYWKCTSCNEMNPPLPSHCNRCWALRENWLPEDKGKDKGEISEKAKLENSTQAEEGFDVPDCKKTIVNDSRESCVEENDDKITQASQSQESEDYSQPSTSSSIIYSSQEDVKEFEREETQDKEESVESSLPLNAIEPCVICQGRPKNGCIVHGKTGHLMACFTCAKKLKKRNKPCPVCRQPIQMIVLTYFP

For `COc1cc(C(F)(F)F)ccc1-c1nc2c(n1C(C)C)[C@@]1(C(=O)Nc3cc(Cl)ccc31)N(c1cc(Cl)cnc1C)C2=O` [Example S-144, (S)-6-chloro-5′-(5-chloro-2-methylpyridin-3-yl)-3′-isopropyl-2′-(2-methoxy-4-(trifluoromethyl)phenyl)-3′H-spiro[dihydroindole-3,4′-pyrrolo[3,4-d]imidazole]-2,6′(5′H)-dione], the pIC50 at MDM2 is 8.42. Moreover, the IC50 in assay [1] stood at 101 nM.

Compound `COc1cc(C2CC2)ccc1-c1nc2c(n1C(C)C)[C@@]1(C(=O)Nc3cc(Cl)ccc31)N(c1cc(Cl)cnc1C)C2=O` [Example S-145, (S)-6-chloro-5′-(5-chloro-2-methylpyridin-3-yl)-2′-(4-cyclopropyl-2-methoxyphenyl)-3′-isopropyl-3′H-spiro[dihydroindole-3,4′-pyrrolo[3,4-d]imidazole]-2,6′(5′H)-dione] showed a pIC50 against MDM2 of 8.69. The IC50 in assay [1] is 28.2 nM.

For the compound `CCOc1ccc(-c2nc3c(n2C(C)C)[C@@]2(C(=O)Nc4cc(Cl)ccc42)N(c2cc(Cl)ccc2C)C3=O)c(OC)n1` [Example S-146, (S)-6-chloro-5′-(5-chloro-2-methylphenyl)-2′-(6-ethoxy-2-methoxypyridin-3-yl)-3′-isopropyl-3′H-spiro[dihydroindole-3,4′-pyrrolo[3,4-d]imidazole]-2,6′(5′H)-dione], the pIC50 at MDM2 is 8.26. Besides, the IC50 in assay [1] is 67.8 nM.

Take `COc1nc(OCC(F)F)ncc1-c1nc2c(n1C(C)C)[C@@]1(C(=O)Nc3cc(Cl)ccc31)N(c1cc(Cl)ccc1C)C2=O` [Example S-147, (S)-6-chloro-5′-(5-chloro-2-methylphenyl)-2′-(2-(2,2-difluoroethoxy)-4-methoxypyrimidin-5-yl)-3′-isopropyl-3′H-spiro[dihydroindole-3,4′-pyrrolo[3,4-d]imidazole]-2,6′(5′H)-dione]: the negative-log IC50 (pIC50) against MDM2 was 8.23. In assay [1], the IC50 is 271 nM.

In turn, `COc1cc(OCCO)ccc1-c1nc2c(n1C(C)C)[C@@]1(C(=O)Nc3cc(Cl)ccc31)N(c1cc(Cl)ccc1C)C2=O` [Example S-148, (S)-6-chloro-5′-(5-chloro-2-methylphenyl)-2′-(4-(2-hydroxyethoxy)-2-methoxyphenyl)-3′-isopropyl-3′H-spiro[dihydroindole-3,4′-pyrrolo[3,4-d]imidazole]-2,6′(5′H)-dione] gave a negative logarithm of the IC50 (pIC50) on MDM2 of 8.80. Moreover, in assay [1], the IC50 is 71.8 nM.

On to `COc1nc(C(C)C)ccc1-c1nc2c(n1C(C)C)[C@@]1(C(=O)Nc3cc(Cl)ccc31)N(c1cc(Cl)ccc1C)C2=O` [Example S-149, (S)-6-chloro-5′-(5-chloro-2-methylphenyl)-3′-isopropyl-2′-(6-isopropyl-2-methoxypyridin-3-yl)-3′H-spiro[dihydroindole-3,4′-pyrrolo[3,4-d]imidazole]-2,6′(5′H)-dione], for which, on MDM2, the pIC50 is 7.73. In addition, the IC50 in assay [1] came to 153 nM.

Turning to `COc1cc(OC(F)F)ncc1-c1nc2c(n1C(C)C)[C@@]1(C(=O)Nc3cc(Cl)ccc31)N(c1cc(Cl)ccc1C)C2=O` [Example S-150, (S)-6-chloro-5′-(5-chloro-2-methylphenyl)-2′-(6-(difluoromethoxy)-4-methoxypyridin-3-yl)-3′-isopropyl-3′H-spiro[dihydroindole-3,4′-pyrrolo[3,4-d]imidazole]-2,6′(5′H)-dione], on MDM2, the pIC50 is 8.71. In addition, the IC50 in assay [1] stood at 80.5 nM.

For the compound `COc1cc(C(F)(F)F)ncc1-c1nc2c(n1C(C)C)[C@@]1(C(=O)Nc3cc(Cl)ccc31)N(c1cc(Cl)cnc1C)C2=O` [Example S-152, (S)-6-chloro-5′-(5-chloro-2-methylpyridin-3-yl)-3′-isopropyl-2′-(4-methoxy-6-(trifluoromethyl)pyridine-3-yl)-3′H-spiro[dihydroindole-3,4′-pyrrolo[3,4-d]imidazole]-2,6′(5′H)-dione], at MDM2, the negative-log IC50 (pIC50) is 9.11. Also, the IC50 in assay [1] was found to be 79.8 nM.

The compound `COc1cc(OCC(F)F)ncc1-c1nc2c(n1C(C)C)[C@@]1(C(=O)Nc3cc(Cl)ccc31)N(c1cc(Cl)ccc1C)C2=O` [Example S-153, (S)-6-chloro-5′-(5-chloro-2-methylphenyl)-2′-(6-(2,2-difluoroethoxy)-4-methoxypyridin-3-yl)-3′-isopropyl-3′H-spiro[dihydroindole-3,4′-pyrrolo[3,4-d]imidazole]-2,6′(5′H)-dione] gave a negative-log IC50 (pIC50) at MDM2 of 9.31. In addition, the IC50 in assay [1] worked out at 22 nM.

Regarding `COc1cc(C)ncc1-c1nc2c(n1C(C)C)[C@@]1(C(=O)Nc3cc(Cl)ccc31)N(c1cc(Cl)ccc1C)C2=O` [Example S-154, (S)-6-chloro-5′-(5-chloro-2-methylphenyl)-3′-isopropyl-2′-(4-methoxy-6-methylpyridin-3-yl)-3′H-spiro[dihydroindole-3,4′-pyrrolo[3,4-d]imidazole]-2,6′(5′H)-dione], at MDM2, the negative-log IC50 (pIC50) was 9.05. Besides, the IC50 in assay [1] worked out at 22 nM.

For the compound `COc1cc(N(C)C)ncc1-c1nc2c(n1C(C)C)[C@@]1(C(=O)Nc3cc(Cl)ccc31)N(c1cc(Cl)cnc1C)C2=O` [Example S-155, (S)-6-chloro-5′-(5-chloro-2-methylpyridin-3-yl)-2′-(6-(dimethylamino)-4-methoxypyridin-3-yl)-3′-isopropyl-3′H-spiro[dihydroindole-3,4′-pyrrolo[3,4-d]imidazole]-2,6′(5′H)-dione], the negative-log IC50 (pIC50) against MDM2 was 9.02. In addition, in assay [1], the IC50 turned out to be 14.6 nM.

Compound `COc1nc(N(C)C)ccc1-c1nc2c(n1C(C)C)[C@@]1(C(=O)Nc3cc(Cl)ccc31)N(c1cc(Cl)ccc1C)C2=O` [Example S-157, (S)-6-chloro-5′-(5-chloro-2-methylphenyl)-2′-(6-(dimethylamino)-2-methoxypyridin-3-yl)-3′-isopropyl-3′H-spiro[dihydroindole-3,4′-pyrrolo[3,4-d]imidazole]-2,6′(5′H)-dione] showed a pIC50 on MDM2 of 8.42. The IC50 in assay [1] was 16.7 nM.

In the case of `COc1ncc(-c2nc3c(n2C(C)C)[C@@]2(C(=O)Nc4cc(Cl)ccc42)N(c2ccc(C#N)c(Cl)c2)C3=O)c(OC)n1` [Example S-158, (S)-2-chloro-4-(6-chloro-2′-(2,4-dimethoxypyrimidin-5-yl)-3′-isopropyl-2,6′-dioxo-3′,6′-dihydro-5′H-spiro[dihydroindole-3,4′-pyrrolo[3,4-d]imidazole]-5′-yl)benzonitrile], the pIC50 against MDM2 is 8.39. For the same compound, the IC50 in assay [1] came out at 550 nM.

Regarding `COc1ncc(-c2nc3c(n2C(C)C)[C@@]2(C(=O)Nc4cc(Cl)ccc42)N(c2ccc(OC(F)(F)F)c(Cl)c2)C3=O)c(OC)n1` [Example S-161, (S)-6-chloro-5′-(3-chloro-4-(trifluoromethoxy)phenyl)-2′-(2,4-dimethoxypyrimidin-5-yl)-3′-isopropyl-3′H-spiro[dihydroindole-3,4′-pyrrolo[3,4-d]imidazole]-2,6′(5′H)-dione], on MDM2, the negative logarithm of the IC50 (pIC50) was 8.09. Moreover, the IC50 in assay [1] is 557 nM.

In turn, `COc1cc(N(C)CCO)ccc1-c1nc2c(n1C(C)C)[C@@]1(C(=O)Nc3cc(Cl)ccc31)N(c1cc(Cl)ccc1C)C2=O` [Example S-162, (S)-6-chloro-5′-(5-chloro-2-methylphenyl)-2′-(4-((2-hydroxyethyl)(methyl)amino)-2-methoxyphenyl)-3′-isopropyl-3′H-spiro[dihydroindole-3,4′-pyrrolo[3,4-d]imidazole]-2,6′(5′H)-dione] had a pIC50 at MDM2 of 8.68. In addition, the IC50 in assay [1] was determined as 14.9 nM.

`COc1cc(OCCF)ncc1-c1nc2c(n1C(C)C)[C@@]1(C(=O)Nc3cc(Cl)ccc31)N(c1cc(Cl)ccc1C)C2=O` [Example S-163, (S)-6-chloro-5′-(5-chloro-2-methylphenyl)-2′-(6-(2-fluoroethoxy)-4-methoxypyridin-3-yl)-3′-isopropyl-3′H-spiro[dihydroindole-3,4′-pyrrolo[3,4-d]imidazole]-2,6′(5′H)-dione]: the pIC50 against MDM2 was 8.87. The IC50 in assay [1] was determined as 126 nM.

`COc1cc(C(C)C)ncc1-c1nc2c(n1C(C)C)[C@@]1(C(=O)Nc3cc(Cl)ccc31)N(c1cc(Cl)ccc1C)C2=O` [Example S-164, (S)-6-chloro-5′-(5-chloro-2-methylphenyl)-3′-isopropyl-2′-(6-isopropyl-4-methoxypyridin-3-yl)-3′H-spiro[dihydroindole-3,4′-pyrrolo[3,4-d]imidazole]-2,6′(5′H)-dione] gave a pIC50 against MDM2 of 9.03. Further, in assay [1], the IC50 came out at 16.8 nM.

The compound `COc1cc(C(C)C)ncc1-c1nc2c(n1C(C)C)[C@@]1(C(=O)Nc3cc(Cl)ccc31)N(c1cc(Cl)cnc1C)C2=O` [Example S-166, (S)-6-chloro-5′-(5-chloro-2-methylpyridin-3-yl)-3′-isopropyl-2′-(6-isopropyl-4-methoxypyridin-3-yl)-3′H-spiro[dihydroindole-3,4′-pyrrolo[3,4-d]imidazole]-2,6′(5′H)-dione] had a pIC50 against MDM2 of 8.73. Also, in assay [1], the IC50 is 38.1 nM.

Consider `COc1nc(OCCF)ncc1-c1nc2c(n1C(C)C)[C@@]1(C(=O)Nc3cc(Cl)ccc31)N(c1cc(Cl)cnc1C)C2=O` [Example S-170, (S)-6-chloro-5′-(5-chloro-2-methylpyridin-3-yl)-2′-(2-(2-fluoroethoxy)-4-methoxypyrimidin-5-yl)-3′-isopropyl-3′H-spiro[dihydroindole-3,4′-pyrrolo[3,4-d]imidazole]-2,6′(5′H)-dione], for which the negative-log IC50 (pIC50) against MDM2 was 8.73. Further, the IC50 in assay [1] was 131 nM.

On to `COc1nc(OCCF)ncc1-c1nc2c(n1C(C)C)[C@@]1(C(=O)Nc3cc(Cl)ccc31)N(c1cccc(Cl)c1)C2=O` [Example S-171, (S)-6-chloro-5′-(3-chlorophenyl)-2′-(2-(2-fluoroethoxy)-4-methoxypyrimidin-5-yl)-3′-isopropyl-3′H-spiro[dihydroindole-3,4′-pyrrolo[3,4-d]imidazole]-2,6′(5′H)-dione], for which the negative logarithm of the IC50 (pIC50) against MDM2 is 8.54. Also, the IC50 in assay [1] stood at 379 nM.

Broadly, the pIC50 is the negative decadic logarithm of the IC50, by convention in mol/L. Read a high pIC50 as a small IC50.
